pIC50: −log10 of the molar value.
target: T1, Estrogen-related receptor gamma (Homo sapiens, UniProt P62508)
T1 sequence (P62508 whole entry): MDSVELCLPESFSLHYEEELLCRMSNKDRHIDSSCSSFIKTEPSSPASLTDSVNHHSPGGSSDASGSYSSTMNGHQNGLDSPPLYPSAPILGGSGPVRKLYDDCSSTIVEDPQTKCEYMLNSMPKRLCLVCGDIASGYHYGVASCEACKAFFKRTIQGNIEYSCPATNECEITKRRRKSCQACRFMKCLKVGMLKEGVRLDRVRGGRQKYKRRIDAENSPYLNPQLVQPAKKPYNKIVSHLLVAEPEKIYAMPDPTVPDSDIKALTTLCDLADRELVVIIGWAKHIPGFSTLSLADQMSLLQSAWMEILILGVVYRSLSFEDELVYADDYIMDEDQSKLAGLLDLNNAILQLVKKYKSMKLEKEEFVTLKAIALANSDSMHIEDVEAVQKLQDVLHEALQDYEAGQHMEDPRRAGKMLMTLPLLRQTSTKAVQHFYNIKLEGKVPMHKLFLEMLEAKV

Compound | pIC50
CN(C)CCOc1ccc(/C(=C(/CCCN=[N+]=[N-])c2ccccc2)c2ccc(O)cc2)cc1 | 6.80
CN(C)CCOc1ccc(/C(=C(/CCN=[N+]=[N-])c2ccccc2)c2ccc(O)cc2)cc1 | 8.30
CN(C)CCOc1ccc(/C(=C(/CCCCl)c2ccccc2)c2ccc(O)cc2)cc1 | 6.89
CSCCC/C(=C(\c1ccc(O)cc1)c1ccc(OCCN(C)C)cc1)c1ccccc1 | 6.00
CN(C)CCOc1ccc(/C(=C(/CCCC#N)c2ccccc2)c2ccc(O)cc2)cc1 | 6.70
CN(C)CCOc1ccc(/C(=C(/CCCl)c2ccccc2)c2ccc(O)cc2)cc1 [4-HYDROXYTORMIFENE] | 7.89
CN(C)CCOc1ccc(/C(=C(/CCC#N)c2ccccc2)c2ccc(O)cc2)cc1 | 5.89
CN(C)CCOc1ccc(/C(=C(/CCCCO)c2ccccc2)c2ccc(O)cc2)cc1 | 6.10

target: T2, Estrogen receptor (Homo sapiens, UniProt P03372)
T2 sequence (P03372 whole entry): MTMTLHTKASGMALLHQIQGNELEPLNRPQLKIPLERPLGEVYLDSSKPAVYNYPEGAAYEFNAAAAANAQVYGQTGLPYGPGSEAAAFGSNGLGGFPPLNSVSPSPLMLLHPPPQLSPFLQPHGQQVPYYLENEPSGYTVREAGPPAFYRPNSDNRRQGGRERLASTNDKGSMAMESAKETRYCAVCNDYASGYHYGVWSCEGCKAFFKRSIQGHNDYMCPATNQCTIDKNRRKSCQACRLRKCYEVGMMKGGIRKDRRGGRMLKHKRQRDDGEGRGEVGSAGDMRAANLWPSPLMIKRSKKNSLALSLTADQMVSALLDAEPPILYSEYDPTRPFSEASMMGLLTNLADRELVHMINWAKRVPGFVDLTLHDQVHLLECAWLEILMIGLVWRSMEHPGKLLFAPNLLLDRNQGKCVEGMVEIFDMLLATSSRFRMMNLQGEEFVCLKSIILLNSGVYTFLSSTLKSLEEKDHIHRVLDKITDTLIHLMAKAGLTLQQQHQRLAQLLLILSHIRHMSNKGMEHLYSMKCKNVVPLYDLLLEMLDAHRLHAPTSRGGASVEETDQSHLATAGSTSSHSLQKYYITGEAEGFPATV

Compound | pIC50
CN(C)CCOc1ccc(/C(=C(/CCN=[N+]=[N-])c2ccccc2)c2ccc(O)cc2)cc1 | 9.00

species on record: Homo sapiens; test: Selectivity for ERRgamma over ERalpha relative to 4-hydroxytamoxifen

Compound | Ratio IC50
CN(C)CCOc1ccc(/C(=C(/CCN=[N+]=[N-])c2ccccc2)c2ccc(O)cc2)cc1 | 1.6

target: T1, Estrogen-related receptor gamma; test: Displacement of [3H]4-OHT from ERRgamma at 3 uM

Compound | IC50
CNCCC/C(=C(\c1ccc(O)cc1)c1ccc(OCCN(C)C)cc1)c1ccccc1 | Not Active
CN(C)CCC/C(=C(\c1ccc(O)cc1)c1ccc(OCCN(C)C)cc1)c1ccccc1 | Not Active
CC(=O)NCCC/C(=C(\c1ccc(O)cc1)c1ccc(OCCN(C)C)cc1)c1ccccc1 | Not Active
CN(C)CCOc1ccc(/C(=C(/CCCC(=O)O)c2ccccc2)c2ccc(O)cc2)cc1 | Not Active

Source: ChEMBL document CHEMBL1149464, “Structure-guided synthesis of tamoxifen analogs with improved selectivity for the orphan ERRgamma” (Bioorg Med Chem Lett, 2006)
